This data set in a line: physchem. It is filed as physicochemical. The settings on record: 20 °C, water. On the procedure:
Compound A is 2-ethoxy-1-{[2′-(5-oxo-4,5-dihydro-1,2,4-oxadiazol-3-yl)biphenyl-4-yl]methyl}-1H-benzimidazole-7-carboxylic acid (melting point: 191° C., solubility in water at 20° C. of about 0.006 g/L). In the following Examples and Reference Examples, the Japanese Pharmacopoeia 14th Edition or Japanese Pharmaceutical Excipients 2003 compatible products were used as the preparation additives. Of the preparation additives, while magnesium stearate is also the Japanese Pharmacopoeia 14th Edition compatible product, like other preparation additives, it particularly has a stearic acid content ratio of not less than about 90% (Taihei Chemical Industrial Co., Ltd.).

Drawing on patent US20100016382A1, “PHARMACEUTICAL COMPOSITION” (TAKEDA PHARMACEUTICAL COMPANY LIMITED, priority 2006, published 2010), this text covers solubility for one molecule.

Molecules are shown by their SMILES. Converted amounts (≈) assume the structure as drawn.

Take `CCOc1nc2cccc(C(=O)O)c2n1Cc1ccc(-c2ccccc2-c2noc(=O)[nH]2)cc1` [Compound A, 2-ethoxy-1-{[2′-(5-oxo-4,5-dihydro-1,2,4-oxadiazol-3-yl)biphenyl-4-yl]methyl}-1H-benzimidazole-7-carboxylic acid]: the solubility (as a rule, the dissolved amount per volume that the medium holds) was about 6 µg/mL (≈ 13.1 µM).
